This is an account of results in patent publication US9334286B2, “Pharmacologically active compounds” (Cancer Research Technology Limited, priority 2012, dated 2016).

The test deals with full length MPS1 (Homo sapiens (Human), UniProt P33981). The experiment in a line: Measurement of inhibition of MPS1 kinase (Caliper EZ reader, fluorescent labelled peptide H236). It is filed as biochemical. The note with it: full length MPS1 12.5 nM or 3 nM, peptide H236 5 μM, ATP 10 μM, 60 min at room temperature. On the procedure: The reaction was carried out for 60 min at room temperature and stopped by the addition of buffer (10 μl) containing 20 mM EDTA, 0.05% (v/v) Brij-35, in 0.1M HEPES-buffered saline (Free acid, Sigma, UK). The plate was read on a Caliper EZ reader II (Caliper Life Sciences).
full length MPS1, sequence (P33981 whole entry): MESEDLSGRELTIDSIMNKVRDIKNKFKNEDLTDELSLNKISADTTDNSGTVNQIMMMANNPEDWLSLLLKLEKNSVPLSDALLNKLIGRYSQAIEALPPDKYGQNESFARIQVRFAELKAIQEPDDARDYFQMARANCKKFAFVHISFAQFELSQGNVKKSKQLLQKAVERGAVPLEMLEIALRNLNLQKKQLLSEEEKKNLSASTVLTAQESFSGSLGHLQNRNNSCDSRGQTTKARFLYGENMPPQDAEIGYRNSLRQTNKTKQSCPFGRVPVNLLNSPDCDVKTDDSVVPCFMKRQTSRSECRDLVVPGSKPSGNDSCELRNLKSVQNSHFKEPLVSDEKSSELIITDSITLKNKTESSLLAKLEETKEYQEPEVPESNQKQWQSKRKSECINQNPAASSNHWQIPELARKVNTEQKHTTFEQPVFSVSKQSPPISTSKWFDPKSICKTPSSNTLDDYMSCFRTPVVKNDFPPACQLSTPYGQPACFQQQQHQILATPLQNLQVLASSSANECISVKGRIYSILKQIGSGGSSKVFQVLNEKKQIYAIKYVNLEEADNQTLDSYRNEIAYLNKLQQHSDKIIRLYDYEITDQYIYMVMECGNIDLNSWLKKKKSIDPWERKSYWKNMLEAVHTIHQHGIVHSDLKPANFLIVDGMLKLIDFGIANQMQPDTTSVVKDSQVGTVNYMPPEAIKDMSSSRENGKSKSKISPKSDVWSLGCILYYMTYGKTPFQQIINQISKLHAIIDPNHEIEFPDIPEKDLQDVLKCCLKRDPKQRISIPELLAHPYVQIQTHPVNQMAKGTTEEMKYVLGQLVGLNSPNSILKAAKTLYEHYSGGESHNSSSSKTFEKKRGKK
The reader provides a Software package (‘Reviewer’) which converts the peak heights into % conversion by measuring both product and substrate peak and also allows selection of control well which represent 0% and 100% inhibition respectively. The % inhibition of the compounds is calculated relative to the means of selected control wells. IC50s are determined by testing the compounds at a range of concentrations from 0.25 nM-100 μM. The % inhibitions at each concentration are then fitted to a 4 parameter logistic fit: y=(a+((b−a)/(1+((c/x^d)))) where a=asym min, b=asym max, c=IC50 and d=hill coefficient
Usually IC50 stands for the concentration needed to halve the response being measured. Higher therefore signals weaker potency. As for `Cc1ncc(-c2ccc(Nc3cc4cc(-c5cnn(CC(C)(C)O)c5)ccc4cn3)cc2)n1C` [Example 47, 1-(4-(3-(4-(1,2-Dimethyl-1H-imidazol-5-yl)phenylamino)isoquinolin-6-yl)-1H-pyrazol-1-yl)-2-methylpropan-2-ol], the IC50 is 6 nM. The result for `COCc1ncc(-c2ccc(Nc3cc4cc(-c5cnn(CC(C)(C)O)c5)ccc4cn3)c(OC)c2)n1C` [Example 63, 1-(4-(3-((2-Methoxy-4-(2-(methoxymethyl)-1-methyl-1H-imidazol-5-yl)phenyl)amino)-isoquinolin-6-yl)-1H-pyrazol-1-yl)-2-methylpropan-2-ol] reads 1 nM; that for `COc1cc(-c2cnc(C)n2C)ccc1Nc1cc2cc(-c3cnn(C4COC4)c3)ccc2cn1` [Example 33, N-(4-(1,2-Dimethyl-1H-imidazol-5-yl)-2-methoxyphenyl)-6-(1-(oxetan-3-yl)-1H-pyrazol-4-yl)isoquinolin-3-amine], 3 nM; that for `COc1cc(-c2cnc(C)n2C)ccc1Nc1cc2cc(-c3cnnn3C)ccc2cn1` [Example 27, N-(4-(1,2-dimethyl-1H-imidazol-5-yl)-2-methoxyphenyl)-6-(1-methyl-1H-1,2,3-triazol-5-yl)isoquinolin-3-amine], 4 nM. For the molecule `COc1cc(-c2nnc3n2CCN(C)C3)ccc1Nc1cc2cc(-c3cnn(CC(C)(C)O)c3)ccc2cn1` [Example 70, 1-(4-(3-((2-Methoxy-4-(7-methyl-5,6,7,8-tetrahydro-[1,2,4]triazolo[4,3-a]pyrazin-3-yl)-phenyl)amino)isoquinolin-6-yl)-1H-pyrazol-1-yl)-2-methylpropan-2-ol], the half-inhibitory concentration (IC50) came out at 2 nM. `CCOc1cc(C(=O)N2CC(OC)C2)ccc1Nc1cc2cc(-c3cnn(CC(C)(C)O)c3)ccc2cn1` [Example 92, (3-Ethoxy-4-(6-(1-(2-hydroxy-2-methylpropyl)-1H-pyrazol-4-yl)isoquinolin-3-ylamino)phenyl)(3-methoxyazetidin-1-yl)methanone] returned an IC50 of 2 nM. The molecule `COc1cc(-c2cnc(C)n2C)ccc1Nc1cc2cc(-c3cnn(C4CCNCC4)c3)ccc2cn1` [Example 113, N-(4-(1,2-dimethyl-1H-imidazol-5-yl)-2-methoxyphenyl)-6-(1-(piperidin-4-yl)-1H-pyrazol-4-yl)isoquinolin-3-amine] registered an IC50 of 4 nM. On to `COc1cc(-c2cnc(C)n2C)ccc1Nc1cc2cc(-c3cncc(C)c3)ccc2cn1` [Example 26, N-(4-(1,2-dimethyl-1H-imidazol-5-yl)-2-methoxyphenyl)-6-(5-methylpyridin-3-yl)isoquinolin-3-amine], for which the IC50 was 10 nM. `COc1cc(C(=O)N2CC(OC)C2)ccc1Nc1cc2cc(-c3cn(CC(C)(C)O)nn3)ccc2cn1` [Example 96, (4-(6-(1-(2-Hydroxy-2-methylpropyl)-1H-1,2,3-triazol-4-yl)isoquinolin-3-ylamino)-3-methoxyphenyl)(3-methoxyazetidin-1-yl)methanone]: the IC50 is 2 nM. Turning to `CC(C)(O)Cn1cc(-c2ccc3cnc(Nc4ccc(-c5cncnc5)cc4Cl)cc3c2)cn1` [Example 58, 1-(4-(3-((2-Chloro-4-(pyrimidin-5-yl)phenyl)amino)isoquinolin-6-yl)-1H-pyrazol-1-yl)-2-methylpropan-2-ol], half-maximal inhibition (IC50) required 5 nM. In the case of `COc1c(Nc2cc3cc(-c4cnn(CC(C)(C)O)c4)ccc3cn2)ccc(-c2cnc(C)n2C)c1F` [Example 50, 1-(4-(3-(4-(1,2-Dimethyl-1H-imidazol-5-yl)-3-fluoro-2-methoxyphenylamino)isoquinolin-6-yl)-1H-pyrazol-1-yl)-2-methylpropan-2-ol], the IC50 was 2 nM.

In turn, `CCC(O)Cn1cc(-c2ccc3cnc(Nc4ccc(C(=O)N5CC(OC)C5)cc4OC)cc3c2)cn1` (racemic) [Example 71, (4-((6-(1-(2-Hydroxybutyl)-1H-pyrazol-4-yl)isoquinolin-3-yl)amino)-3-methoxyphenyl)(3-methoxyazetidin-1-yl)methanone] had a half-maximal inhibitory concentration (IC50) of 4 nM.
